Measured values published in ChEMBL document CHEMBL1255450, “Detection of E119V and E119I mutations in influenza A (H3N2) viruses isolated from an immunocompromised patient: challenges in diagnosis of oseltamivir resistance” (Antimicrob Agents Chemother, 2010).

Tests used:
Influenza A virus [1] = assay: Antiviral activity against Influenza A virus (A/Washington/01/2007 (H3N2)) measured in MDCK cells by NA inhibition assay; format: functional, organism-based
Influenza A virus [2] = assay: Antiviral activity against Influenza A virus (A/Washington/01/2007 (H3N2)) measured in MDCK cells by fluorescent NA inhibition assay; format: functional, organism-based

Compound	IC50 (Influenza A virus [1]) [nM]	IC50 (Influenza A virus [2]) [nM]
C/C=C\[C@@H]1C[C@H](C(=O)O)N[C@H]1[C@@H](NC(C)=O)[C@](C)(CCC)OC	0.74	1.22
CCOC(=O)C1=C[C@@H](OC(CC)CC)[C@H](NC(C)=O)[C@@H](N)C1 [OSELTAMIVIR]	0.16	0.44
CCC(CC)[C@H](NC(C)=O)[C@@H]1[C@H](O)[C@@H](C(=O)O)C[C@H]1NC(=N)N [PERAMIVIR ANHYDROUS]	0.28	0.5
